Data taken from patent US20070049564A1 (Wyeth, priority 2005, published 2007).
In brackets after ≈: the same amount, converted by molar mass. Read-outs that look alike come from different tables or passages of the source.

Legend:
S. aureus GC 2216 = assay: MIC, broth microdilution; details: Staphylococcus aureus, GC2216, S. aureus GC 2216
E. faecalis GC 2265 = assay: MIC, broth microdilution; details: Enterococcus faecalis, GC2265, E. faecalis GC 2265
Description: Antimicrobial susceptibility testing. The in vitro activities of the antibiotics are determined by the broth microdilution method as recommended by the National Committee for Clinical Laboratory Standards (NCCLS) (1). Mueller-Hinton II broth (MHBII)(BBL Cockeysville, Md.) is the medium employed in the testing procedures. Microtiter plates containing serial dilutions of each antimicrobial agent are inoculated with each organism to yield the appropriate density (10^5 CFU/ml) in a 100 μl final volume. The plates are incubated for 18-22 hours at 35° C. in ambient air.
Representative compounds were first incubated in mouse serum for an hour prior to the in vitro testing against a panel of selected gram-positive and gram-negative bacteria strains. All compounds were also pre-incubated in water for an hour prior to testing as control.

Staph. aureus Smith = assay: In vivo activity (oral, iv; ED50) against Staph. aureus Smith in mice
Description: Representative examples of compounds of Formula I were tested for the oral efficacy using S. aureus Smith in mice.

S. aureus GC 6469 = assay: MIC, broth microdilution; details: Staphylococcus aureus, GC6469, S. aureus GC 6469
E. faecium GC 2243 = assay: MIC, broth microdilution; details: Enterococcus faecium, GC2243, E. faecium GC 2243
S. aureus GC 4536 = assay: MIC, broth microdilution; details: Staphylococcus aureus, GC4536, S. aureus GC 4536
E. coli GC 2271 = assay: MIC, broth microdilution; details: Escherichia coli, GC2271, E. coli GC 2271
S. pneumoniae+ GC 4465 = assay: MIC, broth microdilution; details: Streptococcus pneumoniae, S. pneumoniae+ GC 4465
S. pyogenes GC 4563 = assay: MIC, broth microdilution; details: Streptococcus pyogenes, GC4563, S. pyogenes GC 4563
S. agalactiae GC 4564 = assay: MIC, broth microdilution; details: Streptococcus agalactiae, GC4564, S. agalactiae GC 4564
S. aureus GC 6335 = assay: MIC, broth microdilution; details: Staphylococcus aureus, GC6335, S. aureus GC 6335
E. coli GC 2232 = assay: MIC, broth microdilution; details: Escherichia coli, GC2232, E. coli GC 2232
E. coli GC 3226 = assay: MIC, broth microdilution; details: Escherichia coli, GC3226, E. coli GC 3226
E. faecalis GC 2242 = assay: MIC, broth microdilution; details: Enterococcus faecalis, GC2242, E. faecalis GC 2242
E. coli GC 2270 = assay: MIC, broth microdilution; details: Escherichia coli, GC2270, E. coli GC 2270
P. aeruginosa GC 2214 = assay: MIC, broth microdilution; details: Pseudomonas aeruginosa, GC2214, P. aeruginosa GC 2214
E. coli GC 4559 = assay: MIC, broth microdilution; details: Escherichia coli, GC4559, E. coli GC 4559
c. albicans GC 3066 = assay: MIC, broth microdilution
E. coli GC 1073 = assay: MIC, broth microdilution; details: Escherichia coli, GC1073, E. coli GC 1073
[1] = Staphylococcus aureus, in Mus musculus, po, read-out: ED50 Staph Smith SOD
[2] = iv, read-out: ED50 Staph Smith SIV
[3] = c. albicans GC 3066, Water pre-incubation

CCCN(CC(=O)Nc1cc(N(C)C)c2c(c1O)C(=O)C1=C(O)[C@]3(O)C(=O)C(C(N)=O)=C(O)[C@@H](N(C)C)[C@@H]3C[C@@H]1C2)C(=O)OCc1ccccc1 [Example 14, benzyl 2-{[(5aR,6aS,7S,10aS)-9-(aminocarbonyl)-4,7-bis(dimethylamino)-1,8,10a,11-tetrahydroxy-10,12-dioxo-5,5a,6,6a,7,10,10a,12-octahydrotetracen-2-yl]amino}-2-oxoethyl(propyl)carbamate]
MIC (S. aureus GC 2216; Mouse Serum pre-incubation): 2 µg/mL (≈ 2.83 µM) | MIC (S. aureus GC 2216; Water pre-incubation): 4 µg/mL (≈ 5.67 µM) | MIC (E. faecalis GC 2265; Mouse Serum pre-incubation): 2 µg/mL (≈ 2.83 µM) | MIC (E. faecalis GC 2265; Water pre-incubation): 8 µg/mL (≈ 11.3 µM) | ED50 (Staph. aureus Smith; [1]): > 32 mg/kg | ED50 (Staph. aureus Smith; [2]): > 2 mg/kg | MIC (S. aureus GC 6469; Mouse Serum pre-incubation): 2 µg/mL (≈ 2.83 µM) | MIC (S. aureus GC 6469; Water pre-incubation): 4 µg/mL (≈ 5.67 µM) | MIC (E. faecium GC 2243; Mouse Serum pre-incubation): 2 µg/mL (≈ 2.83 µM) | MIC (E. faecium GC 2243; Water pre-incubation): 4 µg/mL (≈ 5.67 µM) | MIC (S. aureus GC 4536; Mouse Serum pre-incubation): 2 µg/mL (≈ 2.83 µM) | MIC (S. aureus GC 4536; Water pre-incubation): 2 µg/mL (≈ 2.83 µM) | MIC (E. coli GC 2271; Mouse Serum pre-incubation): > 64 µg/mL | MIC (E. coli GC 2271; Water pre-incubation): > 64 µg/mL | MIC (S. pneumoniae+ GC 4465; Mouse Serum pre-incubation): 4 µg/mL (≈ 5.67 µM) | MIC (S. pneumoniae+ GC 4465; Water pre-incubation): 4 µg/mL (≈ 5.67 µM) | MIC (S. pyogenes GC 4563; Mouse Serum pre-incubation): 2 µg/mL (≈ 2.83 µM) | MIC (S. pyogenes GC 4563; Water pre-incubation): 4 µg/mL (≈ 5.67 µM) | MIC (S. agalactiae GC 4564; Mouse Serum pre-incubation): 16 µg/mL (≈ 22.7 µM) | MIC (S. agalactiae GC 4564; Water pre-incubation): 16 µg/mL (≈ 22.7 µM) | MIC (S. aureus GC 6335; Mouse Serum pre-incubation): 1 µg/mL (≈ 1.42 µM) | MIC (S. aureus GC 6335; Water pre-incubation): 4 µg/mL (≈ 5.67 µM) | MIC (E. coli GC 2232; Mouse Serum pre-incubation): > 64 µg/mL | MIC (E. coli GC 2232; Water pre-incubation): > 64 µg/mL | MIC (E. coli GC 3226; Mouse Serum pre-incubation): > 64 µg/mL | MIC (E. coli GC 3226; Water pre-incubation): > 64 µg/mL | MIC (E. faecalis GC 2242; Mouse Serum pre-incubation): 2 µg/mL (≈ 2.83 µM) | MIC (E. faecalis GC 2242; Water pre-incubation): 8 µg/mL (≈ 11.3 µM) | MIC (E. coli GC 2270; Mouse Serum pre-incubation): > 64 µg/mL | MIC (E. coli GC 2270; Water pre-incubation): > 64 µg/mL | MIC (P. aeruginosa GC 2214; Mouse Serum pre-incubation): > 64 µg/mL | MIC (P. aeruginosa GC 2214; Water pre-incubation): > 64 µg/mL | MIC (E. coli GC 4559; Mouse Serum pre-incubation): > 64 µg/mL | MIC (E. coli GC 4559; Water pre-incubation): > 64 µg/mL | MIC (c. albicans GC 3066; Candida albicans, GC3066): > 64 µg/mL | MIC (c. albicans GC 3066; [3]): >64 UG/ML | MIC (E. coli GC 1073; Mouse Serum pre-incubation): > 64 µg/mL | MIC (E. coli GC 1073; Water pre-incubation): > 64 µg/mL

CCCN(CC(=O)Nc1cc(N(C)C)c2c(c1O)C(=O)C1=C(O)[C@]3(O)C(=O)C(C(N)=O)=C(O)[C@@H](N(C)C)[C@@H]3C[C@@H]1C2)C(=O)OCC(C)C [Example 16, isobutyl 2-{[(5aR,6aS,7S,10aS)-9-(aminocarbonyl)-4,7-bis(dimethylamino)-1,8,10a,11-tetrahydroxy-10,12-dioxo-5,5a,6,6a,7,10,10a,12-octahydrotetracen-2-yl]amino}-2-oxoethyl(propyl)carbamate]
MIC (S. aureus GC 2216; Mouse Serum pre-incubation): 2 µg/mL (≈ 2.98 µM) | MIC (S. aureus GC 2216; Water pre-incubation): 4 µg/mL (≈ 5.95 µM) | MIC (E. faecalis GC 2265; Mouse Serum pre-incubation): 4 µg/mL (≈ 5.95 µM) | MIC (E. faecalis GC 2265; Water pre-incubation): 8 µg/mL (≈ 11.9 µM) | ED50 (Staph. aureus Smith; [1]): > 32 mg/kg | ED50 (Staph. aureus Smith; [2]): > 2 mg/kg | MIC (S. aureus GC 6469; Mouse Serum pre-incubation): 4 µg/mL (≈ 5.95 µM) | MIC (S. aureus GC 6469; Water pre-incubation): 8 µg/mL (≈ 11.9 µM) | MIC (E. faecium GC 2243; Mouse Serum pre-incubation): 4 µg/mL (≈ 5.95 µM) | MIC (E. faecium GC 2243; Water pre-incubation): 8 µg/mL (≈ 11.9 µM) | MIC (S. aureus GC 4536; Mouse Serum pre-incubation): 2 µg/mL (≈ 2.98 µM) | MIC (S. aureus GC 4536; Water pre-incubation): 4 µg/mL (≈ 5.95 µM) | MIC (E. coli GC 2271; Mouse Serum pre-incubation): > 64 µg/mL | MIC (E. coli GC 2271; Water pre-incubation): > 64 µg/mL | MIC (S. pneumoniae+ GC 4465; Mouse Serum pre-incubation): 8 µg/mL (≈ 11.9 µM) | MIC (S. pneumoniae+ GC 4465; Water pre-incubation): 8 µg/mL (≈ 11.9 µM) | MIC (S. pyogenes GC 4563; Mouse Serum pre-incubation): 4 µg/mL (≈ 5.95 µM) | MIC (S. pyogenes GC 4563; Water pre-incubation): 8 µg/mL (≈ 11.9 µM) | MIC (S. agalactiae GC 4564; Mouse Serum pre-incubation): 16 µg/mL (≈ 23.8 µM) | MIC (S. agalactiae GC 4564; Water pre-incubation): 16 µg/mL (≈ 23.8 µM) | MIC (S. aureus GC 6335; Mouse Serum pre-incubation): 4 µg/mL (≈ 5.95 µM) | MIC (S. aureus GC 6335; Water pre-incubation): 4 µg/mL (≈ 5.95 µM) | MIC (E. coli GC 2232; Mouse Serum pre-incubation): > 64 µg/mL | MIC (E. coli GC 2232; Water pre-incubation): > 64 µg/mL | MIC (E. coli GC 3226; Mouse Serum pre-incubation): 64 µg/mL (≈ 95.3 µM) | MIC (E. coli GC 3226; Water pre-incubation): > 64 µg/mL | MIC (E. faecalis GC 2242; Mouse Serum pre-incubation): 8 µg/mL (≈ 11.9 µM) | MIC (E. faecalis GC 2242; Water pre-incubation): 8 µg/mL (≈ 11.9 µM) | MIC (E. coli GC 2270; Mouse Serum pre-incubation): > 64 µg/mL | MIC (E. coli GC 2270; Water pre-incubation): > 64 µg/mL | MIC (P. aeruginosa GC 2214; Mouse Serum pre-incubation): > 64 µg/mL | MIC (P. aeruginosa GC 2214; Water pre-incubation): > 64 µg/mL | MIC (E. coli GC 4559; Mouse Serum pre-incubation): > 64 µg/mL | MIC (E. coli GC 4559; Water pre-incubation): > 64 µg/mL | MIC (c. albicans GC 3066; Candida albicans, GC3066): > 64 µg/mL | MIC (c. albicans GC 3066; [3]): >64 UG/ML | MIC (E. coli GC 1073; Mouse Serum pre-incubation): > 64 µg/mL | MIC (E. coli GC 1073; Water pre-incubation): > 64 µg/mL
